Data set [1] deals with Host vs Graft Rejection in Mice. Description: Ability of test compounds to suppress host vs graft rejection in mice (popliteal lymph node weight). Type of data set: in vivo, mice (C3H/HeN, BALB/c stimulation cells). Conditions: Mus musculus. The method, then:
Ability of Test Compounds to Suppress Host vs Graft Rejection in Mice
This experiment was performed according to the method described in Transplantation, 55, No.3 (1993): 578-591. Spleens were collected from 9 to 11 week old male BALB/c mice (CLEA JAPAN Inc., CHARLES RIVER JAPAN Inc., or JAPAN SLC Inc.). The spleens were placed in a phosphate-buffered saline (PBS(−), NISSUI PHARMACEUTICAL Co., Ltd.) or in an RPMI-1640 medium (GIBCO […] Inc., or IWAKI GLASS Co., Ltd.) and were either passed through a stainless steel mesh, or gently pressed between two slide glasses and then passed through a cell strainer (70 μm, Falcon), to form a cell suspension. The suspension was then centrifuged and the supernatant was discarded. An ammonium chloride-Tris isotonic buffer was added to the suspension to lyse erythrocytes. The cells were then centrifuged and washed three times in PBS (−) or RPMI-1640 medium and were resuspended in an RPMI-1640 medium. To this suspension, mitomycin C (KYOWA HAKKO KOGYO Co., Ltd.) was added to a final concentration of 25 μg/mL and the suspension was incubated for 30 minutes at 37° C. in a 5% CO2 atmosphere. The cells were again centrifuged and washed in PBS (−) or RPMI-1640 medium and were resuspended in an RPMI-1640 medium so that the medium would contain 2.5×10^8 cells/mL. This suspension served as a “stimulation cell suspension.” Using a 27G needle along with a microsyringe (Hamilton), 20 μL (5×10^6 cells/mouse) of the stimulation cell suspension was subcutaneously injected into the right hind footpad of 7 to 9 week old male C3H/HeN mice (CLEA JAPAN Inc., CHARLES RIVER JAPAN Inc., or JAPAN SLC Inc.). A group of mice was injected with RPMI-1640 medium alone to serve as normal control. 4 days after the injection, right popliteal lymph nodes were collected and were weighed on a Mettler AT201 electronic scale (METTLER TOLEDO Co., Ltd.). Each animal was intraperitoneally administered a test compound once a day for four consecutive days starting on the day of the injection of the stimulation cells (i.e., total of 4 times). Controls were administered a vehicle that has the same composition as that used in the preparation of the test compounds.

Data set [2] relates to Delayed-type Hypersensitivity in Mice. Description: Ability of test compounds to suppress delayed-type hypersensitivity in mice (DNFB, ear thickness). The conditions noted are these: dose 3 mg/kg, orally, 30 minutes before DNFB challenge; increase in ear thickness 24 hours after the challenge. Type of data set: in vivo, mice (BALB/c). As to the method: <Experiment 2> Ability of Test Compounds to Suppress Delayed-type Hypersensitivity in Mice. […] The sensitization was done for 2 consecutive days (day 0 and day 1). On day 5, the ears of the mice were challenged with the antigen to induce delayed-type hypersensitive responses: First, the thickness of each ear was measured by the dial thickness gauge G (0.01-10 mm, OZAKI MFG Co., Ltd.). Next, a test compound was administered. 30 minutes after the administration, 10 μL of a 0.2% (v/v) DNFB solution was applied to the inner and outer surfaces of the right ear of each animal for antigen challenge. The left ear of each animal was challenged with the solvent alone. 24 hours after the challenge, the increase in the ear thickness was measured for each ear and the difference between the right and the left ears was determined for each individual. The test compound was dissolved, or suspended, in an ultra pure water and was orally administered at a dose of 0.1 mL/10 g of body weight. A control group was administered ultra pure water alone.

Where a name gives a salt, the structure may show the parent alone.

The compound `Cl.NC(CO)(CO)C/C=C/c1ccc(Oc2cc(C(F)(F)F)cc(C(F)(F)F)c2)cc1` registered a melting point of 203 to 206 °C.

Turning to `Cl.NC(CO)(CO)CCOc1ccc(Oc2cc(C(F)(F)F)cc(C(F)(F)F)c2)cc1`, the melting point fell in the range of 151 to 155 °C. As to `Cl.NC(CO)(CO)CCc1ccc(Oc2cccc(OCc3ccccc3)c2)cc1Cl`, the melting point lay in the range of 150 to 152 °C. Still for that read-out and setting: next, `Cl.NC(CO)(CO)CCCCc1ccc(Oc2cccc(OCc3ccccc3)c2)cc1Cl`: 95 to 97 °C. The compound `Cl.NC(CO)(CO)CCCc1ccc(Oc2cc(C(F)(F)F)cc(C(F)(F)F)c2)cc1` [Example 147, 2-amino-2-[4-(3,5-bistrifluoromethylphenoxy)phenyl]propyl-1,3-propanediol hydrochloride] returned a melting point of 194 to 196 °C. The same compound registered an inhibition at 10 mg/kg in data set [1] of 82%. The compound `Cl.NC(CO)(CO)CCCc1ccc(Oc2cccc(OCCCc3ccccc3)c2)cc1` [Example 148, 2-amino-2-[4-(3-phenylpropyloxyphenoxy)phenyl]propyl-1,3-propanediol hydrochloride] gave a melting point of 95 to 98 °C. The compound further gave an inhibition at 3 mg/kg in data set [1] of 78%.

In turn, `CC(C)c1cccc(Oc2ccc(CCCC(N)(CO)CO)cc2)c1` [Example 150, 2-amino-2-[4-(3-isopropylphenoxy)phenyl]propyl-1,3-propanediol hydrochloride] displayed an inhibition at 10 mg/kg in data set [1] of 78%. Turning to `Cl.NC(CO)(CO)CCCc1ccc(Oc2cccc(OCc3ccccc3)c2)cc1Cl` [Example 173, 2-amino-2-[4-(3-benzyloxyphenoxy)-2-chlorophenyl]propyl-1,3-propanediol hydrochloride], the melting point was in the range of 105 to 106 °C. In data set [2], this compound showed an Inhibition of 64%. This compound also registered an inhibition at 3 mg/kg in data set [1] of 100%.

In general, melting point refers to the temperature, or range, at which the solid turns liquid. One may read the inhibition as the percentage by which the read-out fell short of the control. Read a low inhibition as little suppression. One may read the Inhibition as the percentage by which the read-out fell short of the control. Read a high Inhibition as a strong effect.

The values above are taken from US6963012B2, “Diaryl ether derivative, addition salt thereof, and immunosuppressant” (Kyorin Pharmaceutical Co., Ltd., priority 2001, dated 2005).
